According to patent publication US20060178408A1, “Nicotinamide derivatives useful as pde4 inhibitors” (priority 2003, published 2006):

Test system: TNFα release from human peripheral blood mononuclear cells
Test: Inhibition of LPS-stimulated TNFα release from human peripheral blood mononuclear cells (TNFα screen, ELISA)
Format: cell-based
Conditions: LPS-stimulated human PBMC, 18 hours incubation, TNFα in supernatant by ELISA
Description: Venous blood is collected from healthy volunteers and the mononuclear cells purified by centrifugation through Histopaque (Ficoll) cushions. TNFα production from these cells is stimulated by addition of lipopolysaccharide. After 18 hours incubation in the presence of LPS, the cell supernatant is removed and the concentration of TNFα in the supernatant determined by ELISA.

IC50: 14 nM
Structure (SMILES): O=C(N[C@H]1CC[C@@H](NC(=O)c2cc(Cl)cc(Cl)c2O)CC1)c1cc(F)cnc1OC1CCSCC1 [Example 26, Syn-N-[4-(3,5-Dichloro-2-hydroxy-benzoylamino)-cyclohexyl]-5-fluoro-2-(tetrahydro-thiopyran-4-yloxy)-nicotinamide]
